# Data taken from patent US6900200B2, “Tricyclic hydroxy carboxamides and derivatives thereof tocolytic oxytocin receptor antagonists” (Wyeth, priority 2001, dated 2005).
# How the values were obtained:
# [1] = target: T1, human vasopressin V2 receptor subtype (Homo sapiens, UniProt P30518); assay: Vasopressin binding in CHO cell membranes expressing human vasopressin V2 subtype receptors ([3H]arginine vasopressin radioligand binding); conditions: for IC50: value printed in parentheses; for inhibition at 0.1 µM: @ 100 nM
# T1 construct: host or cells: CHO cells, pZeoSV vector
# From the text: Vasopressin Binding in Chinese Hamster Ovary Cell Membranes Expressing Human Vasopressin V2 Subtype Receptors
# Chinese Hamster Ovary (CHO) cells stably transfected with the human V2 subtype receptors were obtained from M. Thibonnier, Case Western Reserve University School of Medicine, Cleveland, Ohio.
# A. Passaging and Amplification of Cells
# CHO cells transfected with the human vasopressin V2 subtype receptors obtained from M. Thibonnier (pZeoSV vector) are allowed to grow to confluency (approx. >90%) in T-150 flasks under sterile conditions, in a cell culture medium ofF-12 Nutrient Mixture (HAM) with L-glutamine (Gibco Cat. #11765-054) containing 15 mM HEPES (Gibco Cat. #15630-080), 1% antibiotic/antimycotic (add 5 mL 100×, Gibco Cat. #15240-062 per 500 mL F-12), 250 μg/mL Zeocin (add 1.25 mL of 100 mg/mL Invitrogen R-250-01 per 500 mL F-1 2) and 10% Fetal Bovine Serum (Qualified, heat inactivated, Gibco Cat. #16140-063). The medium is removed by aspiration and the cells washed with 10 mL of Hank's Balanced Salt solution (Gibco Cat. #14175-095). The salt solution is removed by aspiration and the cells trypsinized with 5 mL of trypsin-EDTA (0.05% trypsin, 0.53 mM EDTA-4Na, Gibco Cat. #25300-070) for 1 min. The trypsin is removed by aspiration and the cells dislodged by tapping. Cell Culture medium (e.g. 30 mL for 1:30 split) is immediately added and mixed well to inactivate trypsin. 1 mL of detached cells is added to new culture flasks containing fresh Cell Culture medium (e.g. into 25 mL per T-150 flask), and mixed gently. The cells are incubated at 37° C. in 5% CO2. The medium is changed at 3 to 4 day interval (or as appropriate). The cells grow to confluency (approx. >75%-95%) within 7-8 days. All steps are done under sterile conditions.
# The cells are washed twice gently with Hank's Balanced Salt solution (e.g. use 10 mL per T-150 flask). The excess solution is removed and the cells bathed for 15-30 min. in an enzyme-free Cell Dissociation Buffer (e.g. use 8 mL Hank's Based, Gibco Cat. # 13150-016 per T-150 flask) until cells are loosened. The contents are transferred to centrifuge tubes (50 mL) kept in ice bath. All subsequent steps are done at 4° C. The tubes are centrifuged at 300×g for 15 min (1380 rpm on SORVAL, Model RT6000D, using the rotor for 50 mL tubes). The supernatant is discarded and the cells suspended in homogenizing buffer (10 mM Tris-HCl containing 0.25 M sucrose and 1 mM EDTA, pH 7.4) ensuring that the volume of the buffer is about ten times the volume of the cell pellet. The cells are pooled into a centrifuge tube (50 mL) and homogenized with Polytron at setting 6 for 10 sec. The homogenate is transferred into a Potter-Elvjehm homogenizer and homogenized with 3 strokes. The homogenate is centrifuged at 1500×g for 60 min at 4° C. (3100 rpm using SORVAL, model RT6000D, using the rotor for 50 mL tubes). The pellet is discarded. The supernatant is centrifuged at 100,000×g for 60 min. at 4° C. (Beckman L8-80M ultracentrifuge; spin at 37,500 rpm with rotor type 70 Ti for 50 mL tubes; 38,000 rpm with type 80Ti for 15 mL tubes; or 35,800 rpm with rotor type 45Ti). The supernantant is discarded and the pellet suspended in 3 to 4 mL of Tris buffer (50 mM TRIS—HCl, pH 7.4). The protein content is estimated by the Bradford or Lowry method. The volume of the membrane suspension is adjusted with the membrane buffer (50 mM Tris-HCl containing 0.1% BSA and 0.1 mM PMSF) to give 3.0 mg/mL (or as appropriate) of protein. The membranes are aliquoted and stored at −70. ° C.
# C. Radioligand Binding Assay
# In wells of a 96-well format microtiter plate, is added 90, 110 or 130 μL (to make up a final volume of 200 μL) of assay buffer containing 50 mM of Tris-HCl (pH 7.4), […], 1 mg % aprotinin, 1 mg % leupeptin, 2 mg % 1,10-phenanthroline, 10 mg % trypsin inhibitor, and 0.1 mM PMSF. The inhibitors are added on the day of the experiment. […]
# T1 sequence (P30518 whole entry): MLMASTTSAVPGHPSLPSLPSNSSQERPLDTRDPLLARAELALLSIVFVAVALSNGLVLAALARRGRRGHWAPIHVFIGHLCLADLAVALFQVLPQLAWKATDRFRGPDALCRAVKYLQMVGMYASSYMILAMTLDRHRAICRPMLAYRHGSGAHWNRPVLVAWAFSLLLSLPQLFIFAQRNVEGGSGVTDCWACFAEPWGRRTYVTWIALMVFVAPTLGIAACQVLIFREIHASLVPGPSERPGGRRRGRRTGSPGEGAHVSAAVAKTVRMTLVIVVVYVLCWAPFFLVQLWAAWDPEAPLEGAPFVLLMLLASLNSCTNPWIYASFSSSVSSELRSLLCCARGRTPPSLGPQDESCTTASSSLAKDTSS
SMILES,IC50 [1],melting point,inhibition at 0.1 µM [1]
"COc1cc(C(=O)N2Cc3ccc(C(=O)N(C)CC(O)CN(C)C)n3Cc3ccccc32)ccc1-c1ccccc1C(F)(F)F (stereo not shown) [Example 22, N-[(3-Dimethylamino)-2-hydroxy-propyl]-10-{[2-methoxy-2′-trifluoromethyl-[1,1′-biphenyl]-4-yl]carbonyl}-N-methyl-10,11-dihydro-5H-pyrrolo[2,1-c][1,4]benzodiazepine-3-carboxamide]",1.14 µM,120 to 125 °C (dec.),
"COc1cc2c(cc1OC)N(C(=O)c1ccc(-c3ccccc3OC)c(C)c1)Cc1ccc(C(=O)N(C)C[C@H](O)[C@@H](O)[C@H](O)[C@H](O)CO)n1C2 [Example 37, 7,8-Dimethoxy-10-[(2′-methoxy-2-methyl-[1,1′-biphenyl]-4-yl)carbonyl]-10,11-dihydro-5H-pyrrolo[2,1-c][1,4]benzodiazepine-3-carboxylic acid methyl-[(2S, 3R, 4R, 5R)-2,3,4,5,6-pentahydroxy-hexyl)-amide]",,110 to 120 °C,7%
"COc1cc2c(cc1OC)N(C(=O)c1ccc(-c3ccccc3C(F)(F)F)c(C)c1)Cc1ccc(C(=O)N(C)CC(O)CO)n1C2 (stereo not shown) [Example 18, N-(2,3-Dihydroxypropyl)-7,8-dimethoxy-N-methyl-10-{[2-methyl-2′-trifluoromethyl-[1,1′-biphenyl]-4-yl]carbonyl}-10,11-dihydro-5H-pyrrolo[2,1-c][1,4]benzodiazepine-3-carboxamide]",,184 to 186 °C,-5%

# Continued, values first:
IC50 [1],melting point,inhibition at 0.1 µM [1],SMILES
,140 to 144 °C,16%,"COCCN1CCN(C(=O)c2ccc3n2Cc2ccccc2N(C(=O)c2ccc(-c4ccccc4C(F)(F)F)c(C)c2)C3)CC1 [Example 7, Methyl 2-{4-[(10-{[2-methyl-2′-trifluoromethyl-[1,1′-biphenyl]-4-yl]carbonyl}-10,11-dihydro-5H-pyrrolo[2,1-c][1,4]benzodiazepin-3-yl)carbonyl]piperazin-1-yl}ethyl ether]"
0.311 µM,119 to 123 °C,,"COc1cc(C(=O)N2Cc3ccc(C(=O)N(C)CC(O)CO)n3Cc3ccccc32)ccc1-c1ccccc1C(F)(F)F (stereo not shown) [Example 21, N-(2,3-Dihydroxypropyl)-10-{[2-methoxy-2′-trifluoromethyl-[1,1′-biphenyl]-4-yl]carbonyl}-N-methyl-10,11-dihydro-5H-pyrrolo[2,1-c][1,4]benzodiazepine-3-carboxamide]"
